Test results: patent publication US9857359B2, “Methods for determining drug efficacy using cereblon-associated proteins” (CELGENE CORPORATION, priority 2012, dated 2018)

Key:
[1] = biological target: Ikaros (Homo sapiens, UniProt Q13422); experiment: Ikaros western blots in MM cells, T cells and B cells; type: cell-based; parameters: endogenous in cells; host or cells: U266, DF15 (and other MM lines), primary CD3+ T cells, primary CD19+ B cells; conditions: for Reduction of Ikaros levels compared with other treatment compounds for MM: MM cells
Sequence of Ikaros (Homo sapiens, UniProt Q13422) (Q13422 whole entry): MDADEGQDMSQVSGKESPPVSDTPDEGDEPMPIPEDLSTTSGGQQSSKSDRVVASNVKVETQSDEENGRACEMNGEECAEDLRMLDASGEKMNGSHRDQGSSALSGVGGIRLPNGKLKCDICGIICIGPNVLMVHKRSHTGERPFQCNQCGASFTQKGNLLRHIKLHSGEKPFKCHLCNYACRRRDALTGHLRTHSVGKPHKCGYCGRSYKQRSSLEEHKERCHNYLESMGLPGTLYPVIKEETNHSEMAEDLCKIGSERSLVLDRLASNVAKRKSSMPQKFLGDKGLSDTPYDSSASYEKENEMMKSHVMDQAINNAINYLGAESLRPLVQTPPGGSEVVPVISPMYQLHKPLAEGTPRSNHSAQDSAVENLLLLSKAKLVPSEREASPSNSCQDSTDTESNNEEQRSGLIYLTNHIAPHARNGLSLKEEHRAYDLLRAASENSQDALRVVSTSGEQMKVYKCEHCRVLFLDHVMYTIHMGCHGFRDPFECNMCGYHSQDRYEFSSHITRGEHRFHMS
Procedure: U266 cells were obtained from ATCC (American Type Culture Collection, Manassas, Va., USA). DF15 cells were obtained from John Shaughnessy (University of Arkansas, Little Rock, Ark., USA). CD19+ B cells were purchased from HemaCare BioResearch Products (Van Nuys, Calif.). Cells were grown in RPMI-1640 medium (Cellgro, Manassas, Va.) containing 10% (V/V) heat-inactivated fetal bovine serum (Gibco, Grand Island, N.Y., USA) supplemented with 2 mM glutamine. […] Primary T cells were isolated from human leukocytes (Blood Center of New Jersey, East Orange, N.J.) by centrifugation through FICOLL® centrifugation medium following the ROSETETTESEP™ protocol (Stem Cell Technologies, Vancouver, Canada). […] Dexamethasone (Sigma, St. Louis, Mo.), melphalan (Sigma, St. Louis, Mo.) and bortezomib (Selleck Chemicals, Houston, Tex.) treated was for 6 hours. The final DMSO concentration is 0.1%. Cells were pre-treated with 10 μM MG-132 (Calbiochem Biochemicals, Billerica, Mass.) for 30 minutes prior to drug addition. Cells were harvested, washed in PBS and cell lysates separated on SDS-PAGE gels (Bio-Rad, Hercules, Calif.). Membranes were immunoblotted with anti-Aiolos (Santa Cruz Biotechnology, Dallas, Tex.), anti-Ikaros (Millipore, Billerica, Mass.) and anti-Actin (Sigma, St. Louis, Mo.; or LI-COR Biosciences, Lincoln, Nebr.) and secondary antibodies (LI-COR Biosciences, Lincoln, Nebr.). The blots were analyzed on ODESSEY® imager (LI-COR Biosciences, Lincoln, Nebr.).
Cell lysates were separated on a 10% TGX SDS-PAGE gel (Bio-Rad) and blotted for Aiolos (Santa Cruz, sc-10198), Ikaros (Millipore, ABD16) and Actin (Sigma, AC15).

[2] = system: IRF4; experiment: B-CLL / CD40L fibroblast co-culture Western blot, IRF4; type: cell-based, human; conditions: 72 hours, 10 μM lenalidomide, 1 μM pomalidomide, 0.1 μM Compound A, 0.1 μM Compound B, 3 patient samples
Procedure: (§1) Human primary B-CLL cells viably frozen from patient samples were obtained from AllCells (Emeryville, Calif., USA) and maintained in Roswell Park Memorial Institute (RPMI)-1640 medium with 10% fetal bovine serum (FBS) (Invitrogen, Carlsbad, Calif.). CD40L expressing fibroblasts (gift from Angela Piperno, Rockefeller University, NY, N.Y.) were maintained in DMEM medium supplied with 20% FBS. Prior to co-cultures CD40L fibroblasts were pre-treated for 3 hours with 10 μg/mL Mytomicin C followed by a wash with PBS and Accutase dissociation. Cells were then re-plated at a density of 6×10^5 cells per well (24 well per plate format) and grown overnight to allow formation of monolayer. Defrosted viable primary B-CLL patient cells were pre-stained with CFSE reagent (Vibrant CFDA SE Cell Tracer Kit, Invitrogen, Carlsbad, Calif., USA) according to a manufacturer's supplied protocol and plated at 0.8-1×10^6 cells per well on the pre-formed monolayer of CD40L fibroblasts in RPMI 1640 medium supplemented with 10% FBS, 5 ng/mL rh-IL4 and 10 ng/mL rh-IL10 (Peprotech, USA). For long term cultures, half of the culture media was renewed every three days. Alternatively, for other assays, B-CLL cells were co-cultured on CD40L without being pre-stained.
(§2) Effects of compound treatment on CRBN, Aiolos, p21^WAF-1 and IRF4 were evaluated in 3 different patient cell samples (FIG. 56A). The three patient samples show similar expression levels of CRBN protein (compare lane 1 of the 3 Western blots in FIG. 56A; samples were run in same membrane even though gels are presented as 3 independent pictures in the figure). […] The effects on p21, IRF4 and Aiolos are consistent with the cell cycle arrest and inhibition of proliferation observed with compound treatment.

[3] = system: p21^WAF-1; experiment: B-CLL / CD40L fibroblast co-culture Western blot, p21^WAF-1; type: cell-based, human; conditions: 72 hours, 10 μM lenalidomide, 1 μM pomalidomide, 0.1 μM Compound A, 0.1 μM Compound B, 3 patient samples
Procedure: as §1, §2

[4] = system: Aiolos; experiment: Aiolos protein level in B cells from CLL patients and healthy subjects; type: cell-based, human; conditions: B cells obtained from CLL patients as well as healthy subjects
[5] = biological target: CRBN (Homo sapiens, UniProt Q96SW2); experiment: B-CLL / CD40L fibroblast co-culture Western blot, CRBN; type: cell-based; parameters: endogenous in cells; host or cells: primary B-CLL patient cells co-cultured with CD40L-expressing fibroblasts; conditions: 72 hours, 10 μM lenalidomide, 1 μM pomalidomide, 0.1 μM Compound A, 0.1 μM Compound B, 3 patient samples
Sequence of CRBN (Q96SW2 whole entry): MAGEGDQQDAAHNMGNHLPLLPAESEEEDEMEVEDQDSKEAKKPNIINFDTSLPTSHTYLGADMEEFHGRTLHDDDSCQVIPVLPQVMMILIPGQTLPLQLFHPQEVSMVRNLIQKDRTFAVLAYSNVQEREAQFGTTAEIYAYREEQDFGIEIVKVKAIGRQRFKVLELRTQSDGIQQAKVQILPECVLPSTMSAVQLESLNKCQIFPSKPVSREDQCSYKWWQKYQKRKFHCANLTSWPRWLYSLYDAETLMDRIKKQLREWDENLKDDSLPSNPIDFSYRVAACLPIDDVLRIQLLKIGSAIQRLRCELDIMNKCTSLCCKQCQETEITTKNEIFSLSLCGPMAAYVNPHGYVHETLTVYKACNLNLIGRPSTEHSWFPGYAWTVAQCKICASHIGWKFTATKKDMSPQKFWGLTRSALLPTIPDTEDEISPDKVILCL
Procedure: (§3) CD40L expressing fibroblasts (gift from Angela Piperno, Rockefeller University, NY, N.Y.) were maintained in DMEM medium supplied with 20% FBS. Prior to co-cultures CD40L fibroblasts were pre-treated for 3 hours with 10 μg/mL Mytomicin C followed by a wash with PBS and Accutase dissociation. Cells were then re-plated at a density of 6×10^5 cells per well (24 well per plate format) and grown overnight to allow formation of monolayer. […] For long term cultures, half of the culture media was renewed every three days. Alternatively, for other assays, B-CLL cells were co-cultured on CD40L without being pre-stained.
(§4) Effects of compound treatment on CRBN, Aiolos, p21^WAF-1 and IRF4 were evaluated in 3 different patient cell samples (FIG. 56A).

[6] = system: Aiolos; experiment: Aiolos Western blotting of primary human T cells; type: cell-based; conditions: 6 hours and 24 hours
Procedure: Primary T cells from up to 3 donors were isolated from human leukocytes (Blood Center of New Jersey, East Orange, N.J.) by centrifugation through FICOLL® following the ROSETETTESEP™ protocol (Stem Cell Technologies, Vancouver, Canada). Purified T cells were stimulated with anti-CD3 Antibody (Ebioscience, San Diego, Calif.), drug treated for six hours, harvested and Aiolos and Ikaros protein expression was determined by immunoblot analysis using antibodies against Aiolos (Santa Cruz, Dallas, Tex.) and Ikaros (Millipore, Billerica, Mass.) with our without blocking peptide.

[7] = system: Aiolos; experiment: Aiolos protein inhibition in myeloma cells; type: cell-based
[8] = system: Aiolos; experiment: B-CLL / CD40L fibroblast co-culture, Aiolos (Western blot, flow cytometry); type: cell-based, human; conditions: for Aiolos protein level: B-CLL co-culture, 72 hours, 10 μM lenalidomide, 1 μM pomalidomide, 0.1 μM Compound A, 0.1 μM Compound B, 3 patient samples; for Dose dependence of Aiolos inhibition by flow cytometry: three different B-CLL patient co-culture samples
Procedure: as §3, §4

[9] = system: Ikaros; experiment: Ikaros expression by western blot at 6 hours (FIG. 37); type: cell-based; conditions: 6 hours after the treatment, with varying degrees
[10] = system: Aiolos; experiment: Aiolos expression by western blot at 6 hours (FIG. 37); type: cell-based; conditions: 6 hours after the treatment, with varying degrees
[11] = 10 μM lenalidomide, 1 μM pomalidomide, U266, DF15 MM cells, primary CD3+ T cells, primary CD19+ B cells, cycloheximide treated U266
[12] = six MM cell lines (OPM-2, RPMI-8226, LP-1, U266, H929 and JJN3), various concentrations

Compound | Ikaros expression [1, 11] | Reduction of Ikaros levels compared with other treatment compounds for MM [1] | Ikaros expression [1, 12] | IRF4 protein level [2] | p21^WAF-1 protein level [3] | Aiolos expression [4] | CRBN protein levels [5] | Aiolos expression [6] | Aiolos expression [7] | Potency in Aiolos protein inhibition relative to Len [7] | Aiolos protein level [8] | Dose dependence of Aiolos inhibition by flow cytometry [8] | Ikaros expression [9] | Aiolos expression [10]
Nc1cccc2c1CN(C1CCC(=O)NC1=O)C2=O (centres unmarked) [lenalidomide] | reduced the expression of Aiolos and Ikaros | unique to immunomodulatory compounds provided herein | significantly inhibited Aiolos and Ikaros expression | down regulated | upregulated | – | – | – | – | – | – | – | – | –
Nc1cccc2c1C(=O)N(C1CCC(=O)NC1=O)C2=O (centres unmarked) [pomalidomide, reference compound] | reduced the expression of Aiolos and Ikaros | unique to immunomodulatory compounds provided herein | significantly inhibited Aiolos and Ikaros expression | down regulated | upregulated | inhibit Aiolos expression | do not affect CRBN protein levels or in some samples induce slight increased of CRBN levels | showed an inhibitory effect on Aiolos expression | showed inhibitory effect on Aiolos expression | higher potency than Len | down regulated | dose-dependent inhibition of Aiolos | inhibited the expression of both Aiolos and Ikaros | inhibited the expression of both Aiolos and Ikaros
O=C1CC[C@H](N2Cc3c(OCc4ccc(CN5CCOCC5)cc4)cccc3C2=O)C(=O)N1 [Compound B, 3-(4-((4-(morpholinomethyl)benzyl)oxy)-1-oxoisoindolin-2-yl)piperidine-2,6-dione] | – | – | – | down regulated | upregulated | inhibit Aiolos expression | do not affect CRBN protein levels or in some samples induce slight increased of CRBN levels | showed an inhibitory effect on Aiolos expression | showed inhibitory effect on Aiolos expression | higher potency than Len | down regulated | dose-dependent inhibition of Aiolos | inhibited the expression of both Aiolos and Ikaros | inhibited the expression of both Aiolos and Ikaros
Cc1nc2cccc(N)c2c(=O)n1C1CCC(=O)NC1=O (centres unmarked) [Compound A, 3-(5-amino-2-methyl-4-oxo-4H-quinazolin-3-yl)-piperidine-2,6-dione] | – | – | – | down regulated | upregulated | inhibit Aiolos expression | do not affect CRBN protein levels or in some samples induce slight increased of CRBN levels | showed an inhibitory effect on Aiolos expression | showed inhibitory effect on Aiolos expression | higher potency than Len | down regulated | dose-dependent inhibition of Aiolos | inhibited the expression of both Aiolos and Ikaros | inhibited the expression of both Aiolos and Ikaros
